Measurements: paper PMC9227096, “Design, Synthesis, and In Vitro, In Silico and In Cellulo Evaluation of New Pyrimidine and Pyridine Amide and Carbamate Derivatives as Multi-Functional Cholinesterase Inhibitors” (Pharmaceuticals, 2022)
Where two headings read alike, the source gives them in different places.

Legend:
Assay type in all cases: biochemical
[1] = target: T1, Electrophorus electricus AChE (EeAChE) (Electrophorus electricus, UniProt O42275); assay: Ellman's spectrophotometric method, percent inhibition of EeAChE (zero time and after 1 h incubation); settings: for % Inhibition vs. EeAChE ± SD: [I] 9 µM; for inhibition at 0.9 µM: read-out: % Inhibition vs. EeAChE ± SD, [I] 900 nM
T1 construct: purchased Sigma-Aldrich (Milan, Italy)
Description: (§1) Regarding the synthesized compounds enzymatic inhibition studies were carried out on Electrophorus electricus AChE (EeAChE) and equine BChE (eqBChE), according to Ellman’s spectrophotometric method.
(§2) All other chemical and biological reagents and solvents used were of the highest analytical, commercially available grade. The water, utilized for the preparation of the phosphate buffer and of the solutions of compounds, was distilled and filtered on nylon membrane filters with 0.2 μm pore size with the Millipore® Filtration apparatus before each use. Micropipettes Labmate (BRAND Dig. 10–100 μL; Dig. 100–1000 μL; Dig. 0.1–2 μL) and Transferpette (HIGH TECH LAB LM200: 20–200 μL; LM5000: 1000–5000 μL) were used to collect the samples. The assays were carried out by double beam UV–Vis Lambda 40 Perkin Elmer spectrophotometer, using optical polystyrene cuvettes (10 × 10 × 45 mm, 340–800 nm optical transparency), each measure was repeated at least in triplicate. […] Vivaspin® 2 Sartorius, with a membrane of 3000 MWCO (molecular weight cutoff) consisting of polyethersulfone (PES), cellulose triacetate (CTA) and hydrosart, was used for the ultrafiltration procedures. An ALC PK110 bench-top centrifuge was used for centrifugation. The spectrophotometric method of Ellman, with minor modifications, was used to evaluate the inhibition of cholinesterase enzymes. […] EeAChE and eqBChE were periodically tested to evaluate the effective enzymatic activity.
(§3) An amount of 3.0 mL of a solution in 0.1 M phosphate buffer (pH = 7.4) containing DTNB (0.25 mM) and EeAChE (0.083 UmL^−1) or eqBChE (0.083 UmL^−1) were placed in a polystyrene cuvette of 1.0 cm path length; 1 µL of a solution in DMSO of the tested compound was added to obtain in cuvette concentration range 9 µM–0.09 µM. With this solution the blank was made.
(§4) Each experiment was repeated at least in triplicate.
(§5) The cuvettes were prepared consecutively at intervals of 3 min to allow equal incubation times.

equine BChE (eqBChE) [2] = target: T2, equine BChE (eqBChE) (Equus caballus, UniProt P81908); assay: Ellman's spectrophotometric method, percent inhibition of eqBChE (zero time and after 1 h incubation); settings: for inhibition at 0.9 µM / inhibition at 9 µM: read-out: % Inhibition vs. eqBChE ± SD; for inhibition at 9 µM / % Inhibition vs. eqBChE ± SD: [I] 9 µM
T2 construct: purchased Sigma-Aldrich (Milan, Italy)
Description: as §1, §2, §3, §4, §5

equine BChE (eqBChE) [3] = target: T2, equine BChE (eqBChE); assay: Reversibility of inhibition vs. eqBChE (ultrafiltration and washing); settings: for inhibition at 54 µM: carbaryl 54 µM
Description: Moreover, it was evaluated whether the inhibition mechanism of carbamate 18 towards eqBChE is reversible, irreversible or pseudo-irreversible. For this purpose, the percentages of inhibition were determined both after one hour of the incubation of compound 18 (5.4 µM) with eqBChE (1.25 U), both following the removal of the inhibitor and the washing of the enzyme, carried out through ultrafiltration devices for the concentration of biological samples [35, 36]. To validate the method, the same study was performed with carbaryl (54 µM), a known carbamoylating cholinesterase inhibitor.
After the incubation phase, the solution containing the inhibitor not bound to the enzyme was removed by centrifugation, retaining eqBChE on the membrane of the ultrafiltration devices. Then the enzyme was washed with phosphate buffer, to remove the bound inhibitor and to restore the enzyme activity.
Three solutions were prepared in 0.1 M phosphate buffer (pH = 7.4), containing eqBChE (0.50 UmL^−1), DTNB (0.3 mM) and acetylthiocholine (10 mM), respectively. A solution of compound 18 in DMSO (2.7 mM) was prepared. Then six Vivaspin® were used: • three were prepared with 2.5 mL of eqBChE solution (0.50 UmL^−1) and 5 µL of inhibitor solution; • three were prepared with 2.5 mL of eqBChE solution (0.50 UmL^−1) and 5 µL of DMSO.
The Vivaspin® thus prepared were incubated for 1 h at 25 °C. After this time the percentage of inhibition was determined following the Ellman method. The blank was recorded by taking 500 µL from the Vivaspin® and diluting them in the cuvette in 2.5 mL of DTNB solution (0.3 mM). The reaction was activated by adding 30 μL of acetylthiocholine solution (10 mM), so as to obtain a final concentration of 100 µM in the cuvette. The absorbance variation was measured between 0.5 and 1.5 min at 412 nm, repeating the measurement for each of the six Vivaspin®.
After this procedure the first centrifugation of the Vivaspin® was carried out for 60 min at 4000 rpm and subsequently the solutions that crossed the membrane and settled in the filtrate tube were removed. In this way the solutions present in the concentrator body were concentrated up to 100 µL. To these solutions 1 mL of 0.1 M phosphate buffer (pH = 7.4) was added and the second centrifugation was carried out for 30 min at 4000 rpm. The solutions present in the concentrator body were concentrated up to 200 µL. The second washing was carried out, adding 1 mL of buffer and centrifuging for 30 min at 4000 rpm. The solutions present in the concentrator body were concentrated up to 250 µL. A third wash was carried out adding 1 mL of buffer and centrifuging for 50 min at 4000 rpm. The solutions present in the concentrator body were concentrated up to 150 µL. At this point, to recover the concentrated solution, the filtrate tube was removed, the concentrator body was turned upside down and inserted inside the concentrate recovery cap. The Vivaspin® was centrifuged for 10 min at 4000 rpm. After this time the recovered solution was taken up with 3 mL of DTNB solution (0.3 mM) and transferred into the cuvette: blank was recorded. The reaction was activated when 30 µL of substrate solution (10 mM) were added so as to have a final concentration of 100 µM in the cuvette. The absorbance variation between 0.5 and 1.5 min was measured at 412 nm, repeating the measurement for each of the recovered solutions.
As a positive control carbaryl was used, for which the same procedure was followed, using a 27 mM carbaryl stock solution in DMSO.

[4] = read-out: % Inhibition vs. EeAChE ± SD, [I] 9 µM, 0.0833 U/mL enzyme, 100 µM acetylthiocholine
[5] = [I] 900 nM, 0.0833 U/mL enzyme, 100 µM acetylthiocholine
[6] = 0.0833 U/mL enzyme, 100 µM acetylthiocholine
[7] = 1 h, read-out: % Inhibition vs. EeAChE ± SD, [I] = 9 µM, t = 1 h incubation at 25 °C
[8] = 1 h, [I] = 900 nM, t = 1 h incubation at 25 °C

T2 sequence (P81908 whole entry): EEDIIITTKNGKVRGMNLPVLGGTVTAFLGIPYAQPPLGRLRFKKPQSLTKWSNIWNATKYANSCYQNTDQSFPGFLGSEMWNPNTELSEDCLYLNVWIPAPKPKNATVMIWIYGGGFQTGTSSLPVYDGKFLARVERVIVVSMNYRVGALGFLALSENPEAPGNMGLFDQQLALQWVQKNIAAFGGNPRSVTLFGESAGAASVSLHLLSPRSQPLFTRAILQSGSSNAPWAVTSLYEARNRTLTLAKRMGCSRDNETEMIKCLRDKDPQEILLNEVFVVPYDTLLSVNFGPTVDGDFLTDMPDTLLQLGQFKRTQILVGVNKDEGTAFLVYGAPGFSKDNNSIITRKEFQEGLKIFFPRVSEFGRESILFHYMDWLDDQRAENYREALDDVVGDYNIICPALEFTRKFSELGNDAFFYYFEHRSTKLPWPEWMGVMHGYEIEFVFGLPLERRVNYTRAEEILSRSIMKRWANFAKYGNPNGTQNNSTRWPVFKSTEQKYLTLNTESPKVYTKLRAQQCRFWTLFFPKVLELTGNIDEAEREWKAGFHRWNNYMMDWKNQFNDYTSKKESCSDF
T1 sequence (O42275 24-633): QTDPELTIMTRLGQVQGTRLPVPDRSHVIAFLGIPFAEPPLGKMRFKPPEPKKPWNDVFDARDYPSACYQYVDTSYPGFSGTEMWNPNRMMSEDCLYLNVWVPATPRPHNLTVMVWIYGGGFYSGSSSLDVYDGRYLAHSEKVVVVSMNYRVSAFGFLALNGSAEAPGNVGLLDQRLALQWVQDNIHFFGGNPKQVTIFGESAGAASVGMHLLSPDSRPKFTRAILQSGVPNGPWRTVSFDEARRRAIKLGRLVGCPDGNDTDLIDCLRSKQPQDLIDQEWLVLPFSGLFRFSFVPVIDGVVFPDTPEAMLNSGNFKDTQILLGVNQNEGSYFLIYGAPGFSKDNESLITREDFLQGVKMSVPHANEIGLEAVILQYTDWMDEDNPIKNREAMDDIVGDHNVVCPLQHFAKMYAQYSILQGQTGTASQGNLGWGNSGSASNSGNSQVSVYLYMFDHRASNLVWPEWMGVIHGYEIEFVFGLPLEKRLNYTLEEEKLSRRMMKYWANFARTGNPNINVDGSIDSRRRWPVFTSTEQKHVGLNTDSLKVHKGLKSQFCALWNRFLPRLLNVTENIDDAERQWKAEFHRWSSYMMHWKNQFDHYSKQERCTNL

Work on `O=C(Cc1ccccc1)NCCCCCCNc1ccccn1` [Compound 13, 2-phenyl-N-(6-(pyridine-2-ylamino)hexyl)acetamide] yielded an inhibition at 9 µM [1, 4] of 46.7 ± 1.1%, an inhibition at 0.9 µM (equine BChE (eqBChE) [2]; [5]) of 4.3 ± 5.6% and an inhibition at 9 µM (equine BChE (eqBChE) [2]; [6]) of 49.1 ± 3.2%.

With `O=C(Cc1ccccc1)NCCCCCCNc1ncccn1` [Compound 4, 2-phenyl-N-(6-(pyrimidin-2-ylamino)hexyl)acetamide] the inhibition at 9 µM [1, 4] was 5 ± 4.4% and the inhibition at 9 µM (equine BChE (eqBChE) [2]; [6]) was 5.1 ± 4.7%.

In the case of `O=C(C=Cc1ccccc1)NCCCCCCNc1ncccn1` [Compound 6, N-(6-(pyrimidin-2-ylamino)hexyl)cinnamamide], the “% Inhibition vs. EeAChE ± SD” value [1, 6] is reported as “ns ^c”, the inhibition at 0.9 µM [1, 6] is reported as 7 ± 1.6% and the “% Inhibition vs. eqBChE ± SD” value (equine BChE (eqBChE) [2]; [6]) is reported as “ns ^c”.

With `COc1ccccc1C(=O)NCCCCCCNc1ncccn1` [Compound 9, 2-methoxy-N-(6-(pyrimidin-2-ylamino)hexyl)benzamide] the inhibition at 9 µM [1, 4] was 7.2 ± 0.8% and the inhibition at 9 µM (equine BChE (eqBChE) [2]; [6]) was 9.3 ± 2.4%.

`O=C(NCCCCCCNc1ncccn1)OCc1ccccc1` [Compound 17, Benzyl (6-(pyrimidin-2-ylamino)hexyl)carbamate] was tested, and the inhibition at 9 µM [1, 7] was 10.9 ± 1.4% and the inhibition at 0.9 µM (equine BChE (eqBChE) [2]; [8]) was 13.3 ± 3.9%.

`O=C(NCCCCCCNc1ncccn1)c1cc2ccccc2[nH]1` [Compound 11, N-(6-(pyrimidin-2-ylamino)hexyl)-1H-indole-2-carboxamide] was tested, and the “% Inhibition vs. EeAChE ± SD” value [1, 6] was “ns ^c”, the inhibition at 0.9 µM [1, 6] was 5.5 ± 1.4% and the inhibition at 0.9 µM (equine BChE (eqBChE) [2]; [5]) was 14.1 ± 4.7%. For the same molecule, the “% Inhibition vs. eqBChE ± SD” value (equine BChE (eqBChE) [2]; [6]) was “ns ^c”.

`O=C(Cc1ccc(Oc2ccccc2)cc1)NCCCCCCNc1ncccn1` [Compound 5, 2-(4-phenoxyphenyl)-N-(6-(pyrimidin-2-ylamino)hexyl)acetamide] showed an inhibition at 9 µM [1, 4] of 10.8 ± 2.7% and an inhibition at 9 µM (equine BChE (eqBChE) [2]; [6]) of 16.6 ± 5.5%.

With `O=C(NCCCCCCNc1ncccn1)Oc1ccccc1` [Compound 16, Phenyl (6-(pyrimidin-2-ylamino)hexyl)carbamate] the inhibition at 9 µM [1, 7] was 7.2 ± 0.8% and the inhibition at 0.9 µM (equine BChE (eqBChE) [2]; [8]) was 66.4 ± 5.9%.

`O=C(C=Cc1ccccc1)NCCCCCCNc1ccccn1` [Compound 15, N-(6-(pyridin-2-ylamino)hexyl)cinnamamide] showed an inhibition at 9 µM [1, 4] of 45.4 ± 2.5%, an inhibition at 0.9 µM (equine BChE (eqBChE) [2]; [5]) of 31.5 ± 3.1% and an inhibition at 9 µM (equine BChE (eqBChE) [2]; [6]) of 64.7 ± 2.9%.

`O=C(NCCCCCCNc1ncccn1)c1ccc(Br)cc1` [Compound 7, 4-bromo-N-(6-(pyrimidin-2-ylamino)hexyl)benzamide] showed an inhibition at 9 µM [1, 4] of 11.2 ± 5% and an inhibition at 9 µM (equine BChE (eqBChE) [2]; [6]) of 7.4 ± 2%.

Work on `O=C(NCCCCCCNc1ncccn1)c1ccc(Cl)cc1` [Compound 8, 4-chloro-N-(6-(pyrimidin-2-ylamino)hexyl)benzamide] yielded an inhibition at 9 µM [1, 4] of 9.9 ± 0.8% and an inhibition at 9 µM (equine BChE (eqBChE) [2]; [6]) of 2.1 ± 3.5%.

In the case of `O=C(NCCCCCCNc1ccccn1)OCc1ccccc1` [Compound 19, Benzyl (6-(pyridin-2-ylamino)hexyl)carbamate], the inhibition at 9 µM [1, 7] is reported as 45.4 ± 2.7% and the inhibition at 0.9 µM (equine BChE (eqBChE) [2]; [8]) is reported as 32.4 ± 7.5%.

In the case of `O=C(NCCCCCCNc1ncccn1)c1ccccc1` [Compound 3, N-(6-(pyrimidin-2-ylamino)hexyl)benzamide], the inhibition at 9 µM [1, 4] is reported as about 3% and the inhibition at 9 µM (equine BChE (eqBChE) [2]; [6]) is reported as about 9%.

In the case of `CNC(=O)Oc1cccc2ccccc12` [carbaryl, reference compound], the inhibition at 54 µM (equine BChE (eqBChE) [3]; after ultrafiltration and washing with phosphate buffer, read-out: percentage of inhibition of eqBChE after removal of inhibitor and washing of the enzyme) is reported as 29.9%, the inhibition at 54 µM (equine BChE (eqBChE) [3]; before washing, read-out: percentage of inhibition of eqBChE after one hour of incubation) is reported as 97.4% and the “inhibition mechanism towards eqBChE (reversible, irreversible or pseudo-irreversible)” value (equine BChE (eqBChE) [3]; from restoration of enzymatic activity after washing) is reported as “pseudo-irreversible”.
